From patent publication US20140099634A1, “USE OF PRE-MRNA SPLICING IN PLATELET CELLS FOR THE DIAGNOSIS OF DISEASE” (priority 2007, published 2014)

Legend:
[1] = tested on: TF pre-mRNA splicing in platelets; assay: TF pre-mRNA splicing in platelets (PCR); format: cell-based, human; settings: for pre-mRNA splicing events in platelets: commonly used medications in patients
Text: TF pre-mRNA splicing may be measured by any method known in the art, including, but not limited to, PCR using primers that target sequences in exon four (5′-[…]-3′; SEQ ID NO: 1) and five (5′-[…]-3′; SEQ ID NO: 2), and thus span intron four^3. Likewise, detection of full-length mature mRNA for human TF (mHTF) in platelets may be measured using any method known in the art, including, but not limited to, using primers targeting sequences in exon one (5′-[…]-3′; SEQ ID NO: 3) and exon six (5′-[…]-3′; SEQ ID NO: 4). In light of the disclosure herein, a person of ordinary skill in the art may select and use alternative primers based on the sequence of the gene/RNA^54. Primer design may be aided by the use of available computer programs, such as OLIGO™ (available from Hitachi Software), Primer3 (available online from the University of Massachusetts Medical School), GeneFisher (available online from the Universitat Bielefeld, Germany), or OligoAnalyzer (available from Integrated DNA Technologies, Inc.).
Platelets were isolated from each patient within 48 hours of admission to the ICU and TF mRNA expression patterns were characterized in each patient. In addition, clinical data for each patient including age and gender, admission diagnoses, APACHE II score, laboratory and microbiology results, and mortality were also collected. When feasible, platelets were also isolated from blood that was obtained on days three, five, and ten. The blood samples were processed immediately. Pre-mRNA splicing was also evaluated in platelets isolated from healthy volunteers (age 18-50) that were not taking medications. Platelets isolated from patients with sepsis and routine healthy control donors were processed in parallel.
Platelets from healthy subjects were left quiescent or activated with α-toxin (10 ng/ml; List Biological Laboratories Inc.) or lipopolysaccharide (LPS; 100 ng/ml; Sigma), toxins produced by gram-positive Staph. aureus and gram-negative E. Coli, respectively. Platelets were kept quiescent or activated in suspension with MRSA or E. coli at a bacteria to platelet ratio of 1:10. The bacteria were obtained from blood cultures from sepsis patients by ARUP, a national reference laboratory under standard conditions. For these studies, the bacteria were swiped from the culture plate, re-suspended, and the desired concentration was adjusted against a standard solution using a colorimeter (Vitek Colorimeter, bioMéreux, Inc.).

SRPK2 = SRPK2 (Homo sapiens, UniProt P78362); settings: concentrations up to 1 μM; cited from earlier work
Chain of SRPK2 (P78362 whole entry, species assumed): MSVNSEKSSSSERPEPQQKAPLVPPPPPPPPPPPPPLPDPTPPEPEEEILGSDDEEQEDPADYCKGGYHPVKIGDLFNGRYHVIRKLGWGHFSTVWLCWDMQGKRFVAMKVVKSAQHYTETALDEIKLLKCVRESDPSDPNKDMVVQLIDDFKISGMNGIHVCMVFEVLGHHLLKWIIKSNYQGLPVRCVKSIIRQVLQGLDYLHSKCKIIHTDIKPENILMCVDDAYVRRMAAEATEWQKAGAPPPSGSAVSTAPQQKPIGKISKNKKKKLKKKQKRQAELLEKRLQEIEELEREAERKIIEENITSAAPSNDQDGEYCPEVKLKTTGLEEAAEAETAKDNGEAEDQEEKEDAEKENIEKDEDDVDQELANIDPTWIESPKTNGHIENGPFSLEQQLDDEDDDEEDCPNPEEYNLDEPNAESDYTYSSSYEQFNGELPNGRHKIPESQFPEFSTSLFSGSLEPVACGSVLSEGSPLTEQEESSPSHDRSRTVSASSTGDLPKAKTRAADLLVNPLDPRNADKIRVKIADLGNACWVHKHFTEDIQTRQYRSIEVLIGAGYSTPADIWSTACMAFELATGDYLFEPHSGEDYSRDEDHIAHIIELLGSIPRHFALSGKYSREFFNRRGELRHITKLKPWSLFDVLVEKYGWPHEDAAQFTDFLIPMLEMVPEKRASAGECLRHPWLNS

platelets [2] = assay: Plasma clot formation by activated platelets or their membranes; format: cell-based, human; settings: platelets activated with thrombin for 2 hours, FIG. 5
SRPK1 = SRPK1 (Homo sapiens, UniProt Q96SB4); settings: concentrations up to 1 μM; cited from earlier work
Chain of SRPK1 (Q96SB4 whole entry, species assumed): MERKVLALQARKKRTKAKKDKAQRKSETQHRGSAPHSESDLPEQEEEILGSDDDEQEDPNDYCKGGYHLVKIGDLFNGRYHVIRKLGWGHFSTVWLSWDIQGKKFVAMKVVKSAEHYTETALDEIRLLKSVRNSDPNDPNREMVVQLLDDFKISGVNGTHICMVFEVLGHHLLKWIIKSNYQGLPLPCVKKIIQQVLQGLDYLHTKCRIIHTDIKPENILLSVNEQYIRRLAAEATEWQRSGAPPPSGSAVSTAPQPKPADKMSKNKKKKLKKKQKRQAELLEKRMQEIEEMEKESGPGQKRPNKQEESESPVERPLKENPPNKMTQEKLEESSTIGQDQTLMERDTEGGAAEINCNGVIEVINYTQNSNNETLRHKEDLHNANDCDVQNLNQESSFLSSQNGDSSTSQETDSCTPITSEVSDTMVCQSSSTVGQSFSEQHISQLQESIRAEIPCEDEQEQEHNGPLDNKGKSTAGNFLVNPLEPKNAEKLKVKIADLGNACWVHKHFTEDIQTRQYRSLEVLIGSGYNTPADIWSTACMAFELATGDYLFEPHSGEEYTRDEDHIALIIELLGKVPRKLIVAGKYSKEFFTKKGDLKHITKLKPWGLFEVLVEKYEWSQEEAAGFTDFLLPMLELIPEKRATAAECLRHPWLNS

platelets [3] = settings: cited from earlier work
PKC = settings: concentrations up to 1 μM; cited from earlier work
PKA = settings: concentrations up to 1 μM; cited from earlier work

Question: Which “pre-mRNA splicing events in platelets” value [1] does the source give for `CC(=O)Oc1ccccc1C(=O)O` [Aspirin] here?
Answer: do not affect

Question: And the “signal-dependent TF pre-mRNA splicing” value ([1]; platelets of elderly subject taking aspirin 325 mg daily, thrombin 0.05 U/ml for 1 hour, FIG. 2)?
Answer: does not block

Question: Which “pre-mRNA splicing events in platelets” value [1] does the source give for `CC(=O)CC(c1ccccc1)c1c(O)c2ccccc2oc1=O` (stereo not drawn) [warfarin] here?
Answer: do not affect

Question: With lipopolysaccharide [LPS] as the compound, how does the “induction of TF pre-mRNA splicing” value ([1]; platelets from healthy volunteers, 2 hours, FIGS. 11 and 12) read?
Answer: induced TF pre-mRNA splicing

Question: With heparin as the compound, how does the “TF pre-mRNA splicing” value ([1]; platelets of septic patients who received heparin to prevent VTE) read?
Answer: does not block

Question: Which results are given for `CCN1/C(=C/C(C)=O)Sc2ccc(OC)cc21` [Tg003, (Z)-1-(3-Ethyl-5-methoxy-2,3-dihydrobenzothiazol-2-ylidene)propan-2-one]?
Answer: effect on SRPK2 activity (SRPK2): does not affect; plasma clot formation (platelets [2]): reduces clot formation; pre-mRNA splicing ([1]; platelets activated with thrombin, FIG. 5): blocks pre-mRNA splicing; effect on SRPK1 activity (SRPK1): does not affect; platelet adhesion, spreading, and aggregation (platelets [3]): does not alter; effect on PKC activity (PKC): does not affect; effect on PKA activity (PKA): does not affect
